Data reported in patent publication US20240209028A1, “CNP COMPOUNDS” (priority 2022, published 2024).
Starred links: 1 amine or outer side, 2 acyl side, 3 side chain; linkers in the order of their positions; H or OH if unused. Positions of bridges follow the written chain, without caps; N, C: chain ends. Residues, ends and D or L forms follow the SMILES beside them. *: point of attachment. C18 diacid = O=C(O)CCCCCCCCCCCCCCCCC(=O)*; γGlu = O=C(O)[C@H](CCC(=O)[*:2])N[*:1]; AEEA = NCCOCCOCC(=O)O

What was measured:
[1] = Local tolerance of CNP compounds in rats (s.c. injection, histopathology); format: in vivo, Sprague Dawley rat; conditions: rat, s.c. 350 μl, about 1000 nmol/ml, 5 days post injection
Method in brief: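 Male Sprague Dawley rats (10-11 weeks) received two s.c. injections of 250 or 350 uL compound (1000 nmol/mL formulation) in neck or flank, 120 h before necropsy; vehicle 5 mM sodium acetate/250 mM glycerol pH 4.0 or 8 mM sodium phosphate/250 mM glycerol pH 7.4. Injection sites were scored macroscopically, H&E-stained and graded on a 5-level scale (Min to Sev).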

neprilysin (NEP) = neprilysin (NEP) (Homo sapiens, UniProt P08473); experiment: In vitro neprilysin stability; conditions: recombinant human neprilysin (rhNEP), pH 7.4
neprilysin (NEP), sequence (P08473 whole entry): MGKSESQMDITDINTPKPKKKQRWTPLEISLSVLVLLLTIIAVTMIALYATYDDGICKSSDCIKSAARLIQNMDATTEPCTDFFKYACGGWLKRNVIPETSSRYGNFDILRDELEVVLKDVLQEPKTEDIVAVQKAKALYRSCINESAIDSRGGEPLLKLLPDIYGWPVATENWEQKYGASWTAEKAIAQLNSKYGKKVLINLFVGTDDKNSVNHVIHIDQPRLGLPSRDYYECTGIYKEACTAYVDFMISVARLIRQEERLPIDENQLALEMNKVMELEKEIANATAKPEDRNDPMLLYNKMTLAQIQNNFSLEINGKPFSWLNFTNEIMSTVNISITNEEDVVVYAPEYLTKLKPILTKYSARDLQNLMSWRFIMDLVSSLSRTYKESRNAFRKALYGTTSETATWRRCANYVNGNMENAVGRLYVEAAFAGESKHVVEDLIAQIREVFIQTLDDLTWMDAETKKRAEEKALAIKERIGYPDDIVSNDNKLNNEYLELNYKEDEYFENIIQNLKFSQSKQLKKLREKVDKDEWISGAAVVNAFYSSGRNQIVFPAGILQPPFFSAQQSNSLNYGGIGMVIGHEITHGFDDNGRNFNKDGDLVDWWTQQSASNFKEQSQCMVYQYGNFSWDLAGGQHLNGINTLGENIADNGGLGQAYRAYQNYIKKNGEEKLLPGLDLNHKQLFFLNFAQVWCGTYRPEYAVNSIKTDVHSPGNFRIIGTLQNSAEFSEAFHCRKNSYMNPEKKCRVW

CC[C@H](C)[C@@H]1NC(=O)[C@H](CCCNC(=N)N)NC(=O)[C@H](CC(=O)O)NC(=O)[C@H](CC(C)C)NC(=O)[C@@H]2CCCN2C(=O)[C@H](CC(C)C)NC(=O)CNC(=O)[C@H](Cc2ccccc2)NC(=O)[C@@H](NC(=O)CNC(=O)[C@H](CCC(N)=O)NC(=O)[C@H](CO)NC(=O)[C@H](CC(C)C)NC(=O)CNC(=O)[C@H](CCCCN)NC(=O)[C@H](CCCCN)NC(=O)[C@H](CCC(N)=O)NC(=O)[C@H](C)NC(=O)CNC(=O)[C@H](CCCCN)NC(=O)[C@H](Cc2ccc(O)cc2)NC(=O)[C@H](CCCCN)NC(=O)[C@H](CCCNC(=N)N)NC(=O)[C@H](C)NC(=O)COCCOCCNC(=O)COCCOCCNC(=O)COCCOCCNC(=O)COCCOCCNC(=O)CC[C@H](NC(=O)CC[C@H](NC(=O)CC[C@H](NC(=O)CC[C@H](NC(=O)CC[C@H](NC(=O)CCCCCCCCCCCCCCCCC(=O)O)C(=O)O)C(=O)O)C(=O)O)C(=O)O)C(=O)O)CSSC[C@@H](C(=O)O)NC(=O)CNC(=O)[C@H](CC(C)C)NC(=O)CNC(=O)[C@H](CO)NC(=O)[C@H](CC(C)C)NC(=O)[C@H](CO)NC(=O)CNC1=O [Compound 9407] ({C18 diacid-γGlu-γGlu-γGlu-γGlu-γGlu-AEEA-AEEA-AEEA-AEEA}-ARKYKGAQKKGLSQGCFGLPLDRIGSLSGLGC-OH; disulfide 16-32)
Number of injections by severity of necrosis: NAD (No Abnormalities Detected) [1]: 4
remaining at 1.5 h, 1000 nM (neprilysin (NEP)): 96.6%

CC[C@H](C)[C@@H]1NC(=O)[C@H](CCCNC(=N)N)NC(=O)[C@H](CC(=O)O)NC(=O)[C@H](CC(C)C)NC(=O)[C@@H]2CCCN2C(=O)[C@H](CC(C)C)NC(=O)CNC(=O)[C@H](Cc2ccccc2)NC(=O)[C@@H](NC(=O)CNC(=O)[C@H](CCC(N)=O)NC(=O)[C@H](CO)NC(=O)[C@H](CC(C)C)NC(=O)CNC(=O)[C@H](CCCCN)NC(=O)[C@H](CCCCN)NC(=O)[C@H](CCC(N)=O)NC(=O)[C@H](C)NC(=O)CNC(=O)[C@H](CCCCN)NC(=O)[C@H](Cc2ccc(O)cc2)NC(=O)COCCOCCNC(=O)COCCOCCNC(=O)COCCOCCNC(=O)COCCOCCNC(=O)CC[C@H](NC(=O)CC[C@H](NC(=O)CC[C@H](NC(=O)CCCCCCCCCCCCCCCCC(=O)O)C(=O)O)C(=O)O)C(=O)O)CSSC[C@@H](C(=O)O)NC(=O)CNC(=O)[C@H](CC(C)C)NC(=O)CNC(=O)[C@H](CO)NC(=O)[C@H](CC(C)C)NC(=O)[C@H](CO)NC(=O)CNC1=O [Compound 9480] ({C18 diacid-γGlu-γGlu-γGlu-AEEA-AEEA-AEEA-AEEA}-YKGAQKKGLSQGCFGLPLDRIGSLSGLGC-OH; disulfide 13-29)
remaining at 1.5 h, 1000 nM (neprilysin (NEP)): 98.3%

CC[C@H](C)[C@@H]1NC(=O)[C@H](CCCNC(=N)N)NC(=O)[C@H](CC(=O)O)NC(=O)[C@H](CC(C)C)NC(=O)[C@@H]2CCCN2C(=O)[C@H](CC(C)C)NC(=O)CNC(=O)[C@H](Cc2ccccc2)NC(=O)[C@@H](NC(=O)CNC(=O)[C@H](CO)NC(=O)[C@H](CO)NC(=O)[C@H](CC(C)C)NC(=O)CNC(=O)[C@H](CCCCN)NC(=O)[C@H](CCCCN)NC(=O)[C@H](CCC(N)=O)NC(=O)[C@H](C)NC(=O)CNC(=O)[C@H](CCCCN)NC(=O)[C@H](Cc2ccc(O)cc2)NC(=O)[C@H](CCCCN)NC(=O)[C@H](CCCNC(=N)N)NC(=O)[C@H](C)NC(=O)[C@H](CCC(N)=O)NC(=O)[C@@H]2CCCN2C(=O)[C@H](Cc2c[nH]cn2)NC(=O)[C@H](CCC(=O)O)NC(=O)[C@H](CCC(N)=O)NC(=O)CC[C@H](NC(=O)CC[C@H](NC(=O)CC[C@H](NC(=O)CC[C@H](NC(=O)CC[C@H](NC(=O)CCCCCCCCCCCCCCCCC(=O)O)C(=O)O)C(=O)O)C(=O)O)C(=O)O)C(=O)O)CSSC[C@@H](C(=O)O)NC(=O)CNC(=O)[C@H](CC(C)C)NC(=O)CNC(=O)[C@H](CO)NC(=O)[C@H](CC(C)C)NC(=O)[C@H](CO)NC(=O)CNC1=O [Compound 9482] ({C18 diacid-γGlu-γGlu-γGlu-γGlu-γGlu}-QEHPQARKYKGAQKKGLSSGCFGLPLDRIGSLSGLGC-OH; disulfide 21-37)
remaining at 1.5 h, 1000 nM (neprilysin (NEP)): 96.3%
